Tests used:
[1] = biological target: insulin receptors of isolated rat hepatocytes (Rattus norvegicus, UniProt P15127)
Experimental: (§1) The biological activity in vitro was determined by measuring the binding affinity to the insulin receptors of isolated rat adipocytes and hepatocytes essentially as described in J. Gliemann, S. Gammeltoft: Diabetologia 10, 105-113 (1974).

[2] = biological target: T1, insulin receptors of isolated rat adipocytes (Rattus norvegicus, UniProt P15127); test: Binding affinity to insulin receptors of isolated rat adipocytes; conditions: relative to semisynthetic human insulin, potency set to 100%
T1 construct: endogenous in cells; host or cells: isolated rat adipocytes
T1 sequence (P15127 27-759 limits assumed): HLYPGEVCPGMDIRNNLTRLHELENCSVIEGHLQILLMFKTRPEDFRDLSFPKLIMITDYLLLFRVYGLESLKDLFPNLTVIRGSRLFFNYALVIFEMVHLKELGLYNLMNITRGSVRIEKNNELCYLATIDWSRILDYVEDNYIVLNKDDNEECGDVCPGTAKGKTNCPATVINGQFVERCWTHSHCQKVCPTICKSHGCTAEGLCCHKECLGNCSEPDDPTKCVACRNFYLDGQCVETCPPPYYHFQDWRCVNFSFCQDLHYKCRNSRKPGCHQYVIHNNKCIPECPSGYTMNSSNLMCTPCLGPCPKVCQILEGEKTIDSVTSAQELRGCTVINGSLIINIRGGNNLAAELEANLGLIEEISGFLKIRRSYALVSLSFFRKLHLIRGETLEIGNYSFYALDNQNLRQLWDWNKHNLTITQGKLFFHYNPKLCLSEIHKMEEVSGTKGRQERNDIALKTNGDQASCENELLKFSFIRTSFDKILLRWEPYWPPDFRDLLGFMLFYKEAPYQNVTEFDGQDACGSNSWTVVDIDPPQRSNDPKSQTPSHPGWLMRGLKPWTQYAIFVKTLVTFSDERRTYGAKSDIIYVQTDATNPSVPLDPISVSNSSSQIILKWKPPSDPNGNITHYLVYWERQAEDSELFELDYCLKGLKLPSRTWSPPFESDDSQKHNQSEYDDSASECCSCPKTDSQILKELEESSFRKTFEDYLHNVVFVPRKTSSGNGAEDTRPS
T1 sequence (P15127 764-1383 partner limits assumed): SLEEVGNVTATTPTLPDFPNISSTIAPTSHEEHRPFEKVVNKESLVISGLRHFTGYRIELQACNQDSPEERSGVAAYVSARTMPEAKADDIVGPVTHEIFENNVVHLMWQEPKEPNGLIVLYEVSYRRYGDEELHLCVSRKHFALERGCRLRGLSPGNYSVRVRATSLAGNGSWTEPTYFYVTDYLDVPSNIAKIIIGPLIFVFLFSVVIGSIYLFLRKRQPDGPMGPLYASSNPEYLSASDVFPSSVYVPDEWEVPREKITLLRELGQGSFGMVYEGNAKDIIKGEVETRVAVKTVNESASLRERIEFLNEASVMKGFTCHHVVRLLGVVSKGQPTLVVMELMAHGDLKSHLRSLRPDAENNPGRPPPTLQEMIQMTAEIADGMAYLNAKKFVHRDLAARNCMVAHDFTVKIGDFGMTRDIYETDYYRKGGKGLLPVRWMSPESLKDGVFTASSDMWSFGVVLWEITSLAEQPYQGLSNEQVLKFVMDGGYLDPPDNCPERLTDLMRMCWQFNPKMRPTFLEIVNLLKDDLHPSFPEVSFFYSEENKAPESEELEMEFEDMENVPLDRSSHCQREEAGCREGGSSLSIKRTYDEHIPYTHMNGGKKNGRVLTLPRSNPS
Experimental: as §1

insulin receptors of isolated rat hepatocytes, sequence (P15127 27-759 limits assumed): as the sequence (P15127 27-759 limits assumed) above
insulin receptors of isolated rat hepatocytes, sequence (P15127 764-1383 partner limits assumed): as the sequence (P15127 764-1383 partner limits assumed) above

| Biological activity in vitro (binding affinity), Adipocytes [2] [%] | Substance | Biological activity in vitro (binding affinity), Hepatocytes [1] [%] |
| --- | --- | --- |
| 150 | [His^B25 ]-human insulin | 142 |
| 130 | [His^B25, Asp^B28 ]-des[Thr^B30 ]-human insulin | 135 |
| 356 | [Tyr^B25 ]-human insulin | 222 |
| 201 | [Tyr^B25, Asp^B28 ]-human insulin | 138 |

— patent publication US5149777A, “Human insulin analogs and preparations containing them” (Novo Nordisk A/S, priority 1991, dated 1992)
